Where a SMILES comes first, the peptide text is derived from it. Primed or numbered codes have the meaning given here. Where no end group is shown, it is not given here. [ ]: non-standard residue; d: D form. The star is where a group is joined. FITC = O=C1OC2(c3ccc(O)cc3Oc3cc(O)ccc32)c2ccc(NC(=S)*)cc21; FITC′ = fluorescein isothiocyanate label; PEG = not defined here
Assays:
subcutaneous tumors = test: Tumor targeting of FITC-labeled collagen-binding construct after intravenous infusion; assay type: in vivo; conditions: intravenous infusion into the tail vein of nude mice; FIGS. 3C-3D
[1] = system: subcutaneous human pancreatic cancer xenografts
[2] = system: subcutaneous human pancreatic cancer xenografts; conditions: paclitaxel without aptamer; cited from earlier work
[3] = system: Locally Recurrent or Metastatic Breast Cancer; conditions: Phase III, once per week; cited from earlier work
[4] = Serum stability (resistance to proteolysis) of mAb-aptamers; assay type: in vitro ADME; conditions: FIG. 7C
From the text: The serum stability (resistance to proteolysis) of mAb-Aptamer 1, mAb-Aptamer 2 and mAb-Aptamer 4 were further analyzed.

collagen agarose beads = test: Collagen-agarose column chromatography of mAb-aptamers with fluorescent Rabbit-Anti-Human Abs; assay type: binding; conditions: FIG. 7B
Collagen-Agarose beads [5] = test: Collagen-agarose column chromatography of FITC-labeled collagen-binding constructs; conditions: increasing amounts applied to Collagen-Agarose beads, in vitro; FIG. 3B
From the text: Three fluorescein isothiocyanate (FITC)-labeled collagen-binding constructs were generated and tested. Construct 1 (ac-L1/XC-BD1/L3/FITC) had the sequence of Ac-RRGVHVGWREPSFMALSMPHGGSGK-(FITC) (SEQ ID NO: 45); Construct 2(ac-L1/XC-BD2/L3/FITC) had the sequence of Ac-RRGVHVGWREPGRMELNMPHGGSGK-(FITC) (SEQ ID NO: 46); Construct 3 (ac-L2/XC-BD2/L3/FITC) had the sequence of Ac-RRGVRVAWREPGRMELNMPHGGSGK-(FITC) (SEQ ID NO: 47). […] Increasing amounts of these constructs were applied to the chromatography columns of Collagen-Agarose beads, followed by successive washes with (1) PBS, (2) PBS/PBS, Tween-20, BSA. The retention of the constructs to the column was documented by use of a blue-light transilluminator with an amber filter; quantitative data was obtained with a Quantus fluorometer.

[6] = Serum stability (resistance to proteolysis) of Tx-Apts; assay type: in vitro ADME; conditions: FIG. 4C
Collagen-Agarose beads [7] = test: Collagen-agarose chromatography of RNA-Apts with Oregon Green 488 labeled oligonucleotides; assay type: binding; conditions: for retention of labeled oligonucleotides on collagen-agarose mini-columns: FIG. 10C; for depletion of fluorescently labeled oligonucleotides from the column eluates: increasing amounts of RNA-Apt, FIG. 10B
Experimental: Short oligonucleotides labeled with Oregon Green 488 were incubated with increasing amounts of RNA-Apt 07 or RNA-Apt 08 in PBS for 30 min at 30° C. and then applied to the chromatography column of collagen-agarose beads, followed by successive washes with (1) PBS, (2) PBS/PBS, Tween-20, BSA. The retention to the column was documented by use of a blue-light transilluminator with an amber filter; quantitative data was obtained with a Quantus fluorometer.

CSCC[C@H](NC(=O)[C@H](CCCNC(=N)N)NC(=O)CNC(=O)[C@@H]1CCCN1C(=O)[C@H](CCC(=O)O)NC(=O)[C@H](CCCNC(=N)N)NC(=O)[C@H](Cc1c[nH]c2ccccc12)NC(=O)CNC(=O)[C@@H](NC(=O)[C@H](Cc1c[nH]cn1)NC(=O)[C@@H](NC(=O)CNC(=O)[C@H](CCCNC(=N)N)NC(=O)[C@H](CCCNC(=N)N)NC(C)=O)C(C)C)C(C)C)C(=O)N[C@@H](CCC(=O)O)C(=O)N[C@@H](CC(C)C)C(=O)N[C@@H](CC(N)=O)C(=O)N[C@@H](CCSC)C(=O)N1CCC[C@H]1C(=O)N[C@@H](Cc1c[nH]cn1)C(=O)NCC(=O)NCC(=O)N[C@@H](CO)C(=O)NCC(=O)N[C@@H](CCCCNC(=S)Nc1ccc2c(c1)C(=O)OC21c2ccc(O)cc2Oc2cc(O)ccc21)C(=O)O [Construct 2, Ac-RRGVHVGWREPGRMELNMPHGGSGK-(FITC)] (Ac-RRGVHVGWREPGRMELNMPHGGSGK(FITC)-OH)
targeting to subcutaneous tumors (fluorescence) (subcutaneous tumors): efficiently targeted to subcutaneous tumors

CC(=O)O[C@H]1C(=O)[C@@]2(C)[C@H]([C@H](OC(=O)c3ccccc3)[C@]3(O)C[C@H](OC(=O)[C@H](O)[C@@H](NC(=O)c4ccccc4)c4ccccc4)C(C)=C1C3(C)C)[C@]1(OC(C)=O)CO[C@@H]1C[C@@H]2O [paclitaxel]
active dose as fraction of the low metronomic doses commonly used ([1]; targeted paclitaxel treated mice): 1/10 | active dose as fraction of the normal effective dose of paclitaxel in mice ([1]; used with Taxol-aptamer): 1/50 | dose at which paclitaxel exhibited anti-angiogenic activity ([1]; used with Taxol-aptamer, FIG. 6C): 0.2 mg/kg | normal effective dose of paclitaxel in mice [2]: 10 mg/kg | clinical performance compared with Abraxane [3]: just as good or better than Abraxane | toxicity compared with Abraxane [3]: significantly less toxicity

(PEG)-[C-A-R-R-G-V-H-V-G]-W-R-E-P-G-R-M-E-L-N-M-P-H-[G-G-S-G-G]-H-W-R-G-W-V-A-[G-G-S-G-G]-H-W-R-G-W-V-A-p-t ({PEG}-CARRGVHVGWREPGRMELNMPHGGSGGHWRGWVAGGSGGHWRGWVA[dP][dT]; reading uncertain; also: printed as (PEG)-[C-A-R-R-G-V-H-V-G]-W-R-E-P-G-R-M-E-L-N-M-P-H-[G-G-S-G-G]-H-W-R-G-W-V-A-[G-G-S-G-G]-H-W-R-G-W-V-A-p-t) [mAb-Aptamer 4]
serum stability (resistance to proteolysis) [4]: greatest serum stability | binding of antibodies to the collagen beads (collagen agarose beads): higher binding

Ac-RRGVHVGWREPSFMALSMPHGGSGK-(FITC) (Ac-RRGVHVGWREPSFMALSMPHGGSGK(FITC′)) [Construct 1]
binding to collagen (retention of the constructs to the column) (Collagen-Agarose beads [5]): bound to collagen in a dose dependent manner

Ac-[dR][dR]GVHVGWREPGRMELNMPHGGSGRGVGIMKACGRTRHTVR[dM]G (N-terminus assumed) [Tx-Apt2, Ac-[r-r-G-V-H-V-G]-W-R-E-P-G-R-M-E-L-N-M-P-H-[G-G-S-G]-R-G-V-G-I-M-K-A-C-G-R-T-R-H-T-V-R-m-G]
serum stability (resistance to proteolysis) over time [6]: most stable

RRGVHVGWREPSFMALSMPHGGRRRRRRRRR [RNA-Apt 08]
retention of labeled oligonucleotides on collagen-agarose mini-columns (Collagen-Agarose beads [7]): retaining the labeled oligonucleotides on the collagen-agarose mini-columns | depletion of fluorescently labeled oligonucleotides from the column eluates (Collagen-Agarose beads [7]): depleted fluorescently labeled-oligonucleotides from the eluates

RRRRRRRRRRRGVHVGWREPSFMALSMPHGG [RNA-Apt 07]
retention of labeled oligonucleotides on collagen-agarose mini-columns (Collagen-Agarose beads [7]): retaining the labeled oligonucleotides on the collagen-agarose mini-columns | depletion of fluorescently labeled oligonucleotides from the column eluates (Collagen-Agarose beads [7]): depleted fluorescently labeled-oligonucleotides from the eluates

r-r-GVHVGWREPGRMELNMPHGGSGGHWRGWVAGGSGGHWRGWV-a-a ([dR][dR]GVHVGWREPGRMELNMPHGGSGGHWRGWVAGGSGGHWRGWV[dA][dA]) [mAb-Aptamer 2]
binding of antibodies to the collagen beads (collagen agarose beads): higher binding
